Experimental data from patent US4471116A, “Substituted (10H-phenothiazin-10-L)-propyl-1-piperazines” (Hoffmann-La Roche Inc., priority 1982, dated 1984).
Structures can show the parent of a compound that is named as a salt. Where two headings read alike, the source gives them in different places.

How the values were obtained:
avoidance behavior = assay: Discrete Avoidance - Rats (avoidance block / escape block); assay type: in vivo, rat; details: for inhibition in vivo at 40 mg/kg / inhibition in vivo at 25 mg/kg: Rattus norvegicus
Description: For example, by one procedure, trained rats are placed in experimental chambers equipped with a response lever, a steel grid floor for delivery of electric shock and a loudspeaker for presentation of auditory stimuli. […] The rats can terminate a trial at any point by depression of the response lever. A response during the initial fifteen-second warning tone ends the trial before shock delivery and is considered an avoidance response, while a response occurring during shock delivery is an escape response. Trials are presented every two minutes during a one-hour test session (30 trials per session). […] Compounds are administered to a minimum of three to four rats at each dose level over a range of doses. Rats receive vehicle alone, during control sessions prior to drug administration. Each rat is tested daily or weekly, after a single drug administration, until avoidance behavior returns to pre-drug baseline levels. The session is divided into three consecutive twenty minute (ten trial) segments. Response counts are summed over all subjects at a given dose within each segment. […] This number is expressed as a percentage of the total trials within the segment. […] The lowest dose which produced a 20% block of escape responding (EBD 20) is read from a graphic dose-effect plot. In obtaining these values, percent effect is plotted against the log dose.

[1] = test system: Confinement Motor Activity; assay: Confinement Motor Activity; assay type: in vivo; details: Rat, PO, 1 Hour Post-Drug; read-out: Confinement Motor Activity DD50
[2] = test system: Dopamine Turnover-Brain Limbic and Remainder; assay: Dopamine Turnover-Brain, Limbic and Remainder; assay type: in vivo; details: Rat, 1 mg/kg IP, 1 Hour Post-Drug
[3] = test system: Dopamine Turnover-Brain Caudate; assay: Dopamine Turnover-Brain, Caudate; assay type: in vivo; details: Rat, 1 mg/kg IP, 1 Hour Post-Drug
[4] = test system: Amphetamine Induced Rotation; assay: Amphetamine Induced Rotation antagonism (S. Nigra Lesioned Rats) / Rotation Antagonism; assay type: in vivo, rat; details: Rat, PO, 1 Hour Post-Drug
Continuous Avoidance = Continuous Avoidance (Squirrel Monkeys); assay type: in vivo, squirrel monkey; details: Primates; Squirrel Monkey, PO, 1 Hour Post-Drug; read-out: Continuous Avoidance MED Shocks
[5] = test system: Apomorphine Induced Emesis; assay: Apomorphine Induced Emesis antagonism (Dogs); assay type: in vivo, dog; details: Canis lupus familiaris; Dog, SC, 1 Hour Post-Drug; read-out: Anti-Apomorphine Emesis ED50
[6] = 1 h, 40 mg/kg po, 60 min. post-drug, read-out: Percentage Block of Avoidance, 60 min. post-drug
[7] = 40 mg/kg po, 24 hrs. post-drug, read-out: Percentage Block of Avoidance, 24 hrs. post-drug
[8] = 40 mg/kg po, at the indicated duration, read-out: Avoidance block at Duration of Sig. Activity (AB)
[9] = 40 mg/kg po, at time of peak effect, read-out: Avoidance block at Time of Peak Effect (AB)

| Compound | Duration of Sig. Activity (avoidance behavior; 40 mg/kg po) | Time of Peak Effect (avoidance behavior; 40 mg/kg po) | inhibition in vivo at 40 mg/kg (avoidance behavior; [6]) | inhibition in vivo at 40 mg/kg (avoidance behavior; [7]) | inhibition in vivo at 40 mg/kg (avoidance behavior; [8]) | inhibition in vivo at 40 mg/kg (avoidance behavior; [9]) | also measured |
| --- | --- | --- | --- | --- | --- | --- | --- |
| CC(C)NCCc1ccc(OCCN2CCN(CCCN3c4ccccc4Sc4ccc(Cl)cc43)CC2)cc1.O=C(O)/C=C\C(=O)O.O=C(O)/C=C\C(=O)O.O=C(O)/C=C\C(=O)O [1-[3-(2-chloro-10H-phenothiazin-10-yl)propyl]-4-[2-[4-[2-(1-methylethyl)aminoethyl]phenoxy]ethyl]piperazine trimaleate] | 5 weeks | 1 days | 10% | 100% | 80% | 100% | – |
| O=C(CCCN1CCC(O)(c2ccc(Cl)cc2)CC1)c1ccc(F)cc1 [Haloperidol, haloperidol, reference compound] | – | – | – | – | – | – | ED50 [1]: 0.4 mg/kg; Dopamine Turnover-Brain, Limbic and Remainder [2]: Signif. .uparw.; ED50 (avoidance behavior; Rat, PO, 1 Hour Post-Drug, read-out: Discrete Avoidance ABD50): 0.35 mg/kg; Dopamine Turnover-Brain, Caudate [3]: Signif. .uparw.; ED50 [4]: 0.35 mg/kg; minimal effective dose (Continuous Avoidance): 0.28 mg/kg; ED50 [5]: 0.02 mg/kg |
| CC(C)NCCCCCOc1ccc(OCCN2CCN(CCCN3c4ccccc4Sc4ccc(Cl)cc43)CC2)cc1 [1-[3-(2-chloro-10H--phenothiazin-10-yl)propyl]-4-[2-[4-[5-(1-methylethyl)aminopentoxy]phenoxy]ethyl]piperazine trimaleate] | 2 weeks | 1 days | 10% | 97% | 23% | 97% | – |
| CC(C)NCCCCc1ccc(OCCN2CCN(CCCN3c4ccccc4Sc4ccc(Cl)cc43)CC2)cc1 [1-[3-(2-chloro-10H-phenothiazin-10-yl)propyl]-4-[2-[4-[4-(1-methylethyl)aminobutyl]phenoxy]ethyl]piperazine] | 51/2 | 1 days | 17% | 100% | 55% | 100% | – |
| CC(C)NC[C@H](O)COc1ccc(OCCN2CCN(CCCN3c4ccccc4Sc4ccc(C(F)(F)F)cc43)CC2)cc1 [(S)-1-(1-methylethylamino)-3-[4-[2-[4-[3-(2-trifluoromethyl)-10H-phenothiazin-10-yl)propyl]piperazin-1-yl]ethoxy]phenoxy]-2-propanol trihydrochloride] | – | – | – | – | – | – | Duration of Sig. Activity (avoidance behavior; 25 mg/kg po): 61/2; Time of Peak Effect (avoidance behavior; 25 mg/kg po): 3 to 10 days; inhibition in vivo at 25 mg/kg (avoidance behavior; 1 h, 25 mg/kg po, 60 min. post-drug, read-out: Percentage Block of Avoidance, 60 min. post-drug): 33%; inhibition in vivo at 25 mg/kg (avoidance behavior; 25 mg/kg po, 24 hrs. post-drug, read-out: Percentage Block of Avoidance, 24 hrs. post-drug): 57%; inhibition in vivo at 25 mg/kg (avoidance behavior; 25 mg/kg po, at the indicated duration, read-out: Avoidance block at Duration of Sig. Activity (AB)): 37%; inhibition in vivo at 25 mg/kg (avoidance behavior; 25 mg/kg po, at time of peak effect, read-out: Avoidance block at Time of Peak Effect (AB)): 77 to 87% |
| CC(C)NCCCOc1ccc(OCCN2CCN(CCCN3c4ccccc4Sc4ccc(Cl)cc43)CC2)cc1 [1-[3-(2-chloro-10H-phenothiazin-10-yl)propyl]-4-2-[4-[3-(1-methylethyl)aminopropoxy]phenoxy]ethyl]piperazine trihydrochloride] | 5 weeks | 1 days | 10% | 97% | 50% | 97% | – |
| CC(C)NCCCc1ccc(OCCN2CCN(CCCN3c4ccccc4Sc4ccc(Cl)cc43)CC2)cc1.Cl.Cl.Cl [1-[3-(2-chloro-10H-phenothiazin-10-yl)propyl]-4-[2-[4-[3-(1-methylethyl)aminopropyl]phenoxy]ethyl]piperazine trihydrochloride] | 5 weeks | 1 days | 45% | 100% | 55% | 100% | – |
| CNCCCOc1ccc(OCCN2CCN(CCCN3c4ccccc4Sc4ccc(Cl)cc43)CC2)cc1.Cl.Cl.Cl [3-[[4-[2-[4-[3-(2-chloro-10H-phenothiazin-10-yl)propyl]-1-piperazinyl]ethoxy]phenyl]oxy]-N-methylpropanamine trihydrochloride] | 5 weeks | 1 days | 65% | 100% | 25% | 100% | – |
| Cl.Cl.Cl.NCCCOc1ccc(OCCN2CCN(CCCN3c4ccccc4Sc4ccc(Cl)cc43)CC2)cc1 [3-[[4-[2-[4-[3-(2-chloro-10H-phenothiazin-10-yl)propyl]-1-piperazinyl]ethoxy]phenyl]oxy]propanamine trihydrochloride] | 51/2 | 3 days | 40% | 73% | 27% | 90% | – |
| CC(C)NC[C@@H](O)COc1ccc(OCCN2CCN(CCCN3c4ccccc4Sc4ccc(Cl)cc43)CC2)cc1.Cl.Cl.Cl [(R)-1-(1-methylethylamino)-3-[4-[2-[4-[3-(2-chloro-10H-phenothiazin-10-yl)propyl]piperazin-1-yl]ethoxy]phenoxy]-2-propanol, trihydrochloride] | 3 weeks | 10 days | 20% | 27% | 27% | 37% | – |
| CC(C)NCCOc1ccc(OCCN2CCN(CCCN3c4ccccc4Sc4ccc(Cl)cc43)CC2)cc1.Cl.Cl.Cl [1-[3-(2-chloro-10H-phenothiazin-10-yl)propyl]-4-[2-[4-[2-(1-methylethyl)aminoethoxy]phenoxy]ethyl]piperazine trihydrochloride] | 8 weeks | 1 days | 10% | 100% | 37% | 100% | – |
| CN(C)CCCOc1ccc(OCCN2CCN(CCCN3c4ccccc4Sc4ccc(Cl)cc43)CC2)cc1.Cl.Cl.Cl [3-[[4-[2-[4-[3-(2-chloro-10H-phenothiazin-10-yl)propyl]-1-piperazinyl]ethoxy]phenyl]oxy]-N,N-dimethylpropanamine trihydrochloride] | > 6 weeks | 1 days | 50% | 100% | 25% | 100% | – |
| CC(C)NCCCCCCOc1ccc(OCCN2CCN(CCCN3c4ccccc4Sc4ccc(Cl)cc43)CC2)cc1 [1-[3-(2-chloro-10H-phenothiazin-10-yl)]-4-[2-[4-[6-(1-methylethyl)aminohexyloxy]phenoxy]ethyl]piperazine trihydrochloride] | 1 weeks | 1 days | 23% | 40% | 30% | 40% | – |
| CC(C)NCCCCOc1ccc(OCCN2CCN(CCCN3c4ccccc4Sc4ccc(Cl)cc43)CC2)cc1.Cl.Cl.Cl [1-[3-(2-chloro-10H-phenothiazin-10-yl)propyl]-4-[2-[4-[4-(1-methylethyl)aminobutoxy]phenoxy]ethyl]piperazine trihydrochloride] | 5 weeks | 3 to 10 days | 20% | 33% | 30% | 97 to 100% | – |
| CSc1ccc2c(c1)N(CCCN1CCN(CCOc3ccc(OCCCCCNC(C)C)cc3)CC1)c1ccccc1S2.O=C(O)/C=C\C(=O)O.O=C(O)/C=C\C(=O)O.O=C(O)/C=C\C(=O)O [1-[3-(2-methylthio-10H-phenothiazin-10-yl)propyl]-4-[2-[4-[5-(1-methylethyl)aminopentoxy]phenoxy]ethyl]piperazine trimaleate] | 3 days | 0.0417 days | 60% | 45% | 35% | 60% | – |
